In patent US20210363254A1, “PHARMACEUTICAL COMBINATIONS” (Novartis AG, priority 2018, published 2021):
Where two headings read alike, the source gives them in different places.

## COc1ncc(-c2nc3c(n2C(C)C)[C@H](c2ccc(Cl)cc2)N(c2cc(Cl)cn(C)c2=O)C3=O)c(OC)n1 [HDM201, (S)-5-(5-Chloro-1-methyl-2-oxo-1,2-dihydro-pyridin-3-yl)-6-(4-chloro-phenyl)-2-(2,4-dimethoxy-pyrimidin-5-yl)-1-isopropyl-5,6-dihydro-1H-pyrrolo[3,4-d]imidazol-4-one]
1B 120 mg, N=9
  Abdominal Pain, All Grades: 1 (11.1) n (%)
  Abdominal Pain, Grade 3/4: 0 n (%)
  Alanine Aminotransferase Increased, All Grades: 0 n (%)
  Alanine Aminotransferase Increased, Grade 3/4: 0 n (%)
  Alopecia, All Grades: 1 (11.1) n (%)
  Alopecia, Grade 3/4: 0 n (%)
  Amylase Increased, All Grades: 0 n (%)
  Amylase Increased, Grade 3/4: 0 n (%)
  Anaemia, All Grades: 2 (22.2) n (%)
  Anaemia, Grade 3/4: 0 n (%)
  Asthenia, All Grades: 1 (11.1) n (%)
  Asthenia, Grade 3/4: 0 n (%)
  Blood Bilirubin Increased, All Grades: 0 n (%)
  Blood Bilirubin Increased, Grade 3/4: 0 n (%)
  Blood Creatine Phosphokinase Increased, All Grades: 2 (22.2) n (%)
  Blood Creatine Phosphokinase Increased, Grade 3/4: 1 (11.1) n (%)
  Blood Creatinine Increased, All Grades: 1 (11.1) n (%)
  Blood Creatinine Increased, Grade 3/4: 0 n (%)
  Decreased Appetite, All Grades: 1 (11.1) n (%)
  Decreased Appetite, Grade 3/4: 0 n (%)
  Dehydration, All Grades: 1 (11.1) n (%)
  Dehydration, Grade 3/4: 0 n (%)
  Diarrhoea, All Grades: 3 (33.3) n (%)
  Diarrhoea, Grade 3/4: 0 n (%)
  Dry Skin, All Grades: 1 (11.1) n (%)
  Dry Skin, Grade 3/4: 0 n (%)
  Dysgeusia, All Grades: 1 (11.1) n (%)
  Dysgeusia, Grade 3/4: 0 n (%)
  Eye Pain, All Grades: 0 n (%)
  Eye Pain, Grade 3/4: 0 n (%)
  Fatigue, All Grades: 1 (11.1) n (%)
  Fatigue, Grade 3/4: 0 n (%)
  Folliculitis, All Grades: 0 n (%)
  Folliculitis, Grade 3/4: 0 n (%)
  Gamma-Glutamyltransferase Increased, All Grades: 0 n (%)
  Gamma-Glutamyltransferase Increased, Grade 3/4: 0 n (%)
  Headache, All Grades: 0 n (%)
  Headache, Grade 3/4: 0 n (%)
  Hyperkalaemia, All Grades: 1 (11.1) n (%)
  Hyperkalaemia, Grade 3/4: 0 n (%)
  Hypocalcaemia, All Grades: 1 (11.1) n (%)
  Hypocalcaemia, Grade 3/4: 0 n (%)
  Influenza Like Illness, All Grades: 0 n (%)
  Influenza Like Illness, Grade 3/4: 0 n (%)
  Lethargy, All Grades: 0 n (%)
  Lethargy, Grade 3/4: 0 n (%)
  Leukopenia, All Grades: 1 (11.1) n (%)
  Leukopenia, Grade 3/4: 0 n (%)
  Lipase Increased, All Grades: 1 (11.1) n (%)
  Lipase Increased, Grade 3/4: 0 n (%)
  Lymphopenia, All Grades: 0 n (%)
  Lymphopenia, Grade 3/4: 0 n (%)
  Monocytosis, All Grades: 1 (11.1) n (%)
  Monocytosis, Grade 3/4: 0 n (%)
  Musculoskeletal Pain, All Grades: 1 (11.1) n (%)
  Musculoskeletal Pain, Grade 3/4: 0 n (%)
  Myalgia, All Grades: 1 (11.1) n (%)
  Myalgia, Grade 3/4: 0 n (%)
  Nausea, All Grades: 7 (77.8) n (%)
  Nausea, Grade 3/4: 1 (11.1) n (%)
  Neuralgia, All Grades: 0 n (%)
  Neuralgia, Grade 3/4: 0 n (%)
  Neutropenia, All Grades: 2 (22.2) n (%)
  Neutropenia, Grade 3/4: 2 (22.2) n (%)
  Neutrophil Count Decreased, All Grades: 0 n (%)
  Neutrophil Count Decreased, Grade 3/4: 0 n (%)
  Oedema, All Grades: 0 n (%)
  Oedema, Grade 3/4: 0 n (%)
  Oral Candidiasis, All Grades: 0 n (%)
  Oral Candidiasis, Grade 3/4: 0 n (%)
  Platelet Count Decreased, All Grades: 3 (33.3) n (%)
  Platelet Count Decreased, Grade 3/4: 0 n (%)
  Pruritus, All Grades: 0 n (%)
  Pruritus, Grade 3/4: 0 n (%)
  Thrombocytopenia, All Grades: 1 (11.1) n (%)
  Thrombocytopenia, Grade 3/4: 0 n (%)
  Total, All Grades: 9 (100) n (%)
  Total, Grade 3/4: 4 (44.4) n (%)
  Vomiting, All Grades: 3 (33.3) n (%)
  Vomiting, Grade 3/4: 0 n (%)
  Weight Decreased, All Grades: 1 (11.1) n (%)
  Weight Decreased, Grade 3/4: 0 n (%)
  White Blood Cell Count Decreased, All Grades: 2 (22.2) n (%)
  White Blood Cell Count Decreased, Grade 3/4: 0 n (%)
1B 150 mg, N=8
  Abdominal Pain, All Grades: 2 (25.0) n (%)
  Abdominal Pain, Grade 3/4: 0 n (%)
  Alanine Aminotransferase Increased, All Grades: 1 (12.5) n (%)
  Alanine Aminotransferase Increased, Grade 3/4: 0 n (%)
  Alopecia, All Grades: 0 n (%)
  Alopecia, Grade 3/4: 0 n (%)
  Amylase Increased, All Grades: 0 n (%)
  Amylase Increased, Grade 3/4: 0 n (%)
  Anaemia, All Grades: 2 (25.0) n (%)
  Anaemia, Grade 3/4: 0 n (%)
  Asthenia, All Grades: 1 (12.5) n (%)
  Asthenia, Grade 3/4: 0 n (%)
  Blood Bilirubin Increased, All Grades: 1 (12.5) n (%)
  Blood Bilirubin Increased, Grade 3/4: 0 n (%)
  Blood Creatine Phosphokinase Increased, All Grades: 0 n (%)
  Blood Creatine Phosphokinase Increased, Grade 3/4: 0 n (%)
  Blood Creatinine Increased, All Grades: 1 (12.5) n (%)
  Blood Creatinine Increased, Grade 3/4: 0 n (%)
  Decreased Appetite, All Grades: 3 (37.5) n (%)
  Decreased Appetite, Grade 3/4: 0 n (%)
  Dehydration, All Grades: 0 n (%)
  Dehydration, Grade 3/4: 0 n (%)
  Diarrhoea, All Grades: 2 (25.0) n (%)
  Diarrhoea, Grade 3/4: 0 n (%)
  Dry Skin, All Grades: 0 n (%)
  Dry Skin, Grade 3/4: 0 n (%)
  Dysgeusia, All Grades: 0 n (%)
  Dysgeusia, Grade 3/4: 0 n (%)
  Eye Pain, All Grades: 1 (12.5) n (%)
  Eye Pain, Grade 3/4: 0 n (%)
  Fatigue, All Grades: 2 (25.0) n (%)
  Fatigue, Grade 3/4: 1 (12.5) n (%)
  Folliculitis, All Grades: 1 (12.5) n (%)
  Folliculitis, Grade 3/4: 0 n (%)
  Gamma-Glutamyltransferase Increased, All Grades: 1 (12.5) n (%)
  Gamma-Glutamyltransferase Increased, Grade 3/4: 0 n (%)
  Headache, All Grades: 1 (12.5) n (%)
  Headache, Grade 3/4: 0 n (%)
  Hyperkalaemia, All Grades: 0 n (%)
  Hyperkalaemia, Grade 3/4: 0 n (%)
  Hypocalcaemia, All Grades: 0 n (%)
  Hypocalcaemia, Grade 3/4: 0 n (%)
  Influenza Like Illness, All Grades: 1 (12.5) n (%)
  Influenza Like Illness, Grade 3/4: 0 n (%)
  Lethargy, All Grades: 1 (12.5) n (%)
  Lethargy, Grade 3/4: 0 n (%)
  Leukopenia, All Grades: 1 (12.5) n (%)
  Leukopenia, Grade 3/4: 1 (12.5) n (%)
  Lipase Increased, All Grades: 2 (25.0) n (%)
  Lipase Increased, Grade 3/4: 2 (25.0) n (%)
  Lymphopenia, All Grades: 2 (25.0) n (%)
  Lymphopenia, Grade 3/4: 1 (12.5) n (%)
  Monocytosis, All Grades: 0 n (%)
  Monocytosis, Grade 3/4: 0 n (%)
  Musculoskeletal Pain, All Grades: 0 n (%)
  Musculoskeletal Pain, Grade 3/4: 0 n (%)
  Myalgia, All Grades: 0 n (%)
  Myalgia, Grade 3/4: 0 n (%)
  Nausea, All Grades: 4 (50.0) n (%)
  Nausea, Grade 3/4: 0 n (%)
  Neuralgia, All Grades: 1 (12.5) n (%)
  Neuralgia, Grade 3/4: 0 n (%)
  Neutropenia, All Grades: 4 (50.0) n (%)
  Neutropenia, Grade 3/4: 3 (37.5) n (%)
  Neutrophil Count Decreased, All Grades: 3 (37.5) n (%)
  Neutrophil Count Decreased, Grade 3/4: 2 (25.0) n (%)
  Oedema, All Grades: 0 n (%)
  Oedema, Grade 3/4: 0 n (%)
  Oral Candidiasis, All Grades: 1 (12.5) n (%)
  Oral Candidiasis, Grade 3/4: 0 n (%)
  Platelet Count Decreased, All Grades: 1 (12.5) n (%)
  Platelet Count Decreased, Grade 3/4: 0 n (%)
  Pruritus, All Grades: 1 (12.5) n (%)
  Pruritus, Grade 3/4: 0 n (%)
  Thrombocytopenia, All Grades: 4 (50.0) n (%)
  Thrombocytopenia, Grade 3/4: 2 (25.0) n (%)
  Total, All Grades: 7 (87.5) n (%)
  Total, Grade 3/4: 4 (50.0) n (%)
  Vomiting, All Grades: 2 (25.0) n (%)
  Vomiting, Grade 3/4: 0 n (%)
  Weight Decreased, All Grades: 0 n (%)
  Weight Decreased, Grade 3/4: 0 n (%)
  White Blood Cell Count Decreased, All Grades: 1 (12.5) n (%)
  White Blood Cell Count Decreased, Grade 3/4: 0 n (%)
1B 200 mg, N=3
  Abdominal Pain, All Grades: 0 n (%)
  Abdominal Pain, Grade 3/4: 0 n (%)
  Alanine Aminotransferase Increased, All Grades: 0 n (%)
  Alanine Aminotransferase Increased, Grade 3/4: 0 n (%)
  Alopecia, All Grades: 0 n (%)
  Alopecia, Grade 3/4: 0 n (%)
  Amylase Increased, All Grades: 1 (33.3) n (%)
  Amylase Increased, Grade 3/4: 0 n (%)
  Anaemia, All Grades: 1 (33.3) n (%)
  Anaemia, Grade 3/4: 0 n (%)
  Asthenia, All Grades: 0 n (%)
  Asthenia, Grade 3/4: 0 n (%)
  Blood Bilirubin Increased, All Grades: 0 n (%)
  Blood Bilirubin Increased, Grade 3/4: 0 n (%)
  Blood Creatine Phosphokinase Increased, All Grades: 0 n (%)
  Blood Creatine Phosphokinase Increased, Grade 3/4: 0 n (%)
  Blood Creatinine Increased, All Grades: 0 n (%)
  Blood Creatinine Increased, Grade 3/4: 0 n (%)
  Decreased Appetite, All Grades: 0 n (%)
  Decreased Appetite, Grade 3/4: 0 n (%)
  Dehydration, All Grades: 0 n (%)
  Dehydration, Grade 3/4: 0 n (%)
  Diarrhoea, All Grades: 0 n (%)
  Diarrhoea, Grade 3/4: 0 n (%)
  Dry Skin, All Grades: 0 n (%)
  Dry Skin, Grade 3/4: 0 n (%)
  Dysgeusia, All Grades: 0 n (%)
  Dysgeusia, Grade 3/4: 0 n (%)
  Eye Pain, All Grades: 0 n (%)
  Eye Pain, Grade 3/4: 0 n (%)
  Fatigue, All Grades: 1 (33.3) n (%)
  Fatigue, Grade 3/4: 0 n (%)
  Folliculitis, All Grades: 0 n (%)
  Folliculitis, Grade 3/4: 0 n (%)
  Gamma-Glutamyltransferase Increased, All Grades: 0 n (%)
  Gamma-Glutamyltransferase Increased, Grade 3/4: 0 n (%)
  Headache, All Grades: 0 n (%)
  Headache, Grade 3/4: 0 n (%)
  Hyperkalaemia, All Grades: 0 n (%)
